Data reported in ChEMBL document CHEMBL4219198, “Peptidomimetic nitrile inhibitors of malarial protease falcipain-2 with high selectivity against human cathepsins” (Bioorg Med Chem Lett, 2018).

What was measured:
Plasmodium falciparum = experiment: Antimalarial activity against Plasmodium falciparum infected in human erythrocytes; format: functional, organism-based
Procathepsin L = Procathepsin L (Homo sapiens, UniProt P07711); experiment: Inhibition of human cathepsin L
Cathepsin B = Cathepsin B (Homo sapiens, UniProt P07858); experiment: Inhibition of human cathepsin B
Cathepsin S = Cathepsin S (Homo sapiens, UniProt P25774); experiment: Inhibition of human cathepsin S
Cathepsin S, sequence (P25774 whole entry): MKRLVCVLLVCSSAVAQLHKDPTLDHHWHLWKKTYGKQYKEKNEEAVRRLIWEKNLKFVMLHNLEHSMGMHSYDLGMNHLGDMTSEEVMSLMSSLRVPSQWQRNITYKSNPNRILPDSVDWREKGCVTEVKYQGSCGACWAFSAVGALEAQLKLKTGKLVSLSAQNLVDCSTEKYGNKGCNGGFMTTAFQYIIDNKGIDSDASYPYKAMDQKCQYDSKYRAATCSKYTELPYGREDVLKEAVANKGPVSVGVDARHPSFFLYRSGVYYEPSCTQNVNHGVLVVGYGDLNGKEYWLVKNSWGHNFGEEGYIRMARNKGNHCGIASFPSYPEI

Cathepsin K = target: T1, Cathepsin K (Homo sapiens, UniProt P43235); experiment: Inhibition of human cathepsin K
T1 sequence (P43235 whole entry): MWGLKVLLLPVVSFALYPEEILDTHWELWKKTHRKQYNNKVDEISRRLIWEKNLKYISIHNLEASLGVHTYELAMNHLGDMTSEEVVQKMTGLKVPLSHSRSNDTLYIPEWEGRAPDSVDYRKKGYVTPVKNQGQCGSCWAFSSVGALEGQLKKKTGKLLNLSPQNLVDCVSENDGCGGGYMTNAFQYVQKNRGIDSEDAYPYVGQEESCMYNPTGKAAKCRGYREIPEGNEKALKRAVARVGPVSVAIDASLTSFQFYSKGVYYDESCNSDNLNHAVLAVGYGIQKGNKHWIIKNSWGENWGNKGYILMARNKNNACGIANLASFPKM

Falcipain 2 = target: T2, Falcipain 2 (Plasmodium falciparum, UniProt Q9N6S8); experiment: Inhibition of Plasmodium falciparum falcipain-2
T2 sequence (Q9N6S8 whole entry): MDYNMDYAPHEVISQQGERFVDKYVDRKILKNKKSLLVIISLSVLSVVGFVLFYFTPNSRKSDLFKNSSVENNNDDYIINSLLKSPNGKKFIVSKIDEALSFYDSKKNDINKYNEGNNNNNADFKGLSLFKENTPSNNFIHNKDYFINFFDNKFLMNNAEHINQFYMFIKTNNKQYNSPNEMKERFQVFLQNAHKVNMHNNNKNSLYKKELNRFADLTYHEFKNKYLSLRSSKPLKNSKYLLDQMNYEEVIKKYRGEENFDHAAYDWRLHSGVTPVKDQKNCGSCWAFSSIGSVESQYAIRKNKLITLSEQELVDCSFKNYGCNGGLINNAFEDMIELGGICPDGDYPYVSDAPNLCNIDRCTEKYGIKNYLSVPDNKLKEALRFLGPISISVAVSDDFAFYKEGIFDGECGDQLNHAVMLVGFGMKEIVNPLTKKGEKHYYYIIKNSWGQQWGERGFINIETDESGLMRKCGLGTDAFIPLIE

[1] = Selectivity ratio of IC50 for human cathepsin K to IC50 for Plasmodium falciparum falcipain-2
[2] = Selectivity ratio of IC50 for human cathepsin S to IC50 for Plasmodium falciparum falcipain-2
[3] = Selectivity ratio of IC50 for human cathepsin L to IC50 for Plasmodium falciparum falcipain-2
[4] = Selectivity ratio of IC50 for human cathepsin B to IC50 for Plasmodium falciparum falcipain-2
[5] = Cytotoxicity against HUVEC assessed as reduction in cell viability; format: cell-based; settings: human, HUVEC cells
[6] = Cytotoxicity against human HeLa cells assessed as reduction in cell viability; format: cell-based
[7] = target: T3, Cysteine protease falcipain-3 (Plasmodium falciparum, UniProt Q9NAW4); experiment: Inhibition of Plasmodium falciparum falcipain-3
T3 sequence (Q9NAW4 whole entry): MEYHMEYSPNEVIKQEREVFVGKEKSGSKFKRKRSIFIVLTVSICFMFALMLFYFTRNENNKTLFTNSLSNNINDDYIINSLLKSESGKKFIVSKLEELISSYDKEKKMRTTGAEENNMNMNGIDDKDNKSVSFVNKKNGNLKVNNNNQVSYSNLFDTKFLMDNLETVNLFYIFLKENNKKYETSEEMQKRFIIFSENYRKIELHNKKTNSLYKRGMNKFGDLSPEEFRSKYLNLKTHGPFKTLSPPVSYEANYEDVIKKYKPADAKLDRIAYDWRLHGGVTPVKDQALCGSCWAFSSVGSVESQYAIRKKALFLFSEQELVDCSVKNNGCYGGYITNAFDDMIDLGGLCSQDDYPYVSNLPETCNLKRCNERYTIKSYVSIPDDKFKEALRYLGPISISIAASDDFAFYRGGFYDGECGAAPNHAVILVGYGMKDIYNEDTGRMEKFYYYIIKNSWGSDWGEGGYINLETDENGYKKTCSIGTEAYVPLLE

Procathepsin L, sequence (P07711 whole entry): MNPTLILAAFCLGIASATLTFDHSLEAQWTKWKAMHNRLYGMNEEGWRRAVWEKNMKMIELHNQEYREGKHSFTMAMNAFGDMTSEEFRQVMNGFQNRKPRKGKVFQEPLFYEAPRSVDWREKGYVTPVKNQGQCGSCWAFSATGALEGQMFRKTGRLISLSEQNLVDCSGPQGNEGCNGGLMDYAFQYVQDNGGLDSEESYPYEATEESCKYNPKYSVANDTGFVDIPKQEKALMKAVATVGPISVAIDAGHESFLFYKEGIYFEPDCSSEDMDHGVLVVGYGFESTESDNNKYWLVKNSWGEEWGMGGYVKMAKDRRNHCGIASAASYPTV

| SMILES | EC50 (Plasmodium falciparum) | IC50 (Procathepsin L) | IC50 (Cathepsin B) | IC50 (Cathepsin S) | IC50 (Cathepsin K) | IC50 (Falcipain 2) | Ratio IC50 [1] | Ratio IC50 [2] | Ratio IC50 [3] | Ratio IC50 [4] | IC50 [7] | CC50 [5] | CC50 [6] |
| --- | --- | --- | --- | --- | --- | --- | --- | --- | --- | --- | --- | --- | --- |
| N#CC1(NC(=O)C(Cc2ccc(Cl)nc2)NC(=O)c2ccc(-c3ccccc3)cc2)CC1 (stereo unspecified) |  | 4280 nM | > 5000 nM | 190 nM | > 5000 nM | 230 nM |  |  |  |  |  |  |  |
| CN(C)c1ccc(C[C@H](NC(=O)c2ccc(-c3ccccc3)cc2)C(=O)NC2(C#N)CC2)cc1 |  | > 5000 nM | 715 nM |  | > 5000 nM | > 5000 nM |  |  |  |  |  |  |  |
| COc1ccc(CC(NC(=O)c2ccc(-c3ccccc3)cc2)C(=O)NC2(C#N)CC2)cn1 (stereo unspecified) |  | 2630 nM | 4080 nM | 195 nM | > 5000 nM | 178 nM |  |  |  |  |  |  |  |
| N#CC1(NC(=O)[C@H](Cc2ccc(O[C@@H]3CCNC3)cc2)NC(=O)c2ccc(-c3ccccc3)cc2)CC1 |  | 300 nM | 2240 nM | 3580 nM | 2690 nM | 1590 nM |  |  |  |  |  |  |  |
| N#CC1(NC(=O)[C@H](Cc2ccncc2)NC(=O)c2ccc(-c3ccccc3)cc2)CC1 |  | 755 nM | > 5000 nM | 710 nM | 867 nM | > 5000 nM |  |  |  |  |  |  |  |
| CN1CCN(C(=O)C[C@H](NC(=O)c2ccc(-c3ccccc3)cc2)C(=O)NC2(C#N)CC2)CC1 |  | > 5000 nM | > 5000 nM | > 5000 nM | > 5000 nM | > 5000 nM |  |  |  |  |  |  |  |
| N#CC1(NC(=O)[C@H](Cc2ccccn2)NC(=O)c2ccc(-c3ccccc3)cc2)CC1 |  | > 5000 nM | > 5000 nM | > 5000 nM | 3830 nM | > 5000 nM |  |  |  |  |  |  |  |
| N#CC1(NC(=O)[C@@H](Cc2cccnc2)NC(=O)c2ccc(-c3ccccc3)cc2)CC1 |  | > 5000 nM | > 50000 nM | > 5000 nM | > 5000 nM | > 5000 nM |  |  |  |  |  |  |  |
| N#CC1(NC(=O)[C@H](CCCCCN)NC(=O)c2ccc(-c3ccccc3)cc2)CC1 |  |  |  |  |  | > 5000 nM |  |  |  |  |  |  |  |
| N#CC1(NC(=O)[C@H](Cc2cscn2)NC(=O)c2ccc(-c3ccccc3)cc2)CC1 |  | > 5000 nM | 2370 nM | 2370 nM | 435 nM | 137 nM |  |  |  |  |  |  |  |
| N#CC1(NC(=O)[C@H](Cc2ccccc2)NC(=O)c2ccc(-c3ccccc3)cc2)CC1 |  | 635 nM | 2210 nM | 283 nM | 213 nM | 667 nM |  |  |  |  |  |  |  |
| N#CC1(NC(=O)[C@H](Cc2c[nH]c3ccc(O)cc23)NC(=O)c2ccc(-c3ccccc3)cc2)CC1 |  | 494 nM | 1100 nM | 253 nM | 1870 nM | 192 nM |  |  |  |  |  |  |  |
| N#CC1(NC(=O)[C@H](Cc2nc3ccccc3s2)NC(=O)c2ccc(-c3ccccc3)cc2)CC1 |  | 334 nM | > 5000 nM | 18 nM | > 5000 nM | > 5000 nM |  |  |  |  |  |  |  |
| N#CC1(NC(=O)[C@H](CCCCN)NC(=O)c2ccc(-c3ccccc3)cc2)CC1 |  | > 5000 nM | 1270 nM | > 5000 nM | > 5000 nM | > 5000 nM |  |  |  |  |  |  |  |

Now those with a lower IC50 (Falcipain 2), led by results:

| EC50 (Plasmodium falciparum) | IC50 (Procathepsin L) | IC50 (Cathepsin B) | IC50 (Cathepsin S) | IC50 (Cathepsin K) | IC50 (Falcipain 2) | Ratio IC50 [1] | Ratio IC50 [2] | Ratio IC50 [3] | Ratio IC50 [4] | IC50 [7] | SMILES | CC50 [5] | CC50 [6] |
| --- | --- | --- | --- | --- | --- | --- | --- | --- | --- | --- | --- | --- | --- |
| > 25000 nM | 99 nM | 2500 nM | 1.1 nM | 0.11 nM | 8 nM |  |  |  |  |  | CC(C)C[C@H](NC(=O)c1ccc(-c2ccccc2)cc1)C(=O)NC1(C#N)CCS(=O)(=O)CC1 |  |  |
|  |  |  |  |  | 8.2 nM | 180 | 26 | 302 | > 610 |  | CS(=O)(=O)c1cccc(-c2cccc(C(=O)N[C@@H](Cc3cccnc3)C(=O)NC3(C#N)CC3)c2)c1 |  |  |
|  |  |  |  |  | 8.6 nM | 170 | 202 | 61 | > 581 |  | CN1CCCC(c2cccc(C(=O)N[C@@H](Cc3cccnc3)C(=O)NC3(C#N)CC3)c2)C1 (stereo partly specified) |  |  |
| 61 nM | 0.7 nM | 987 nM | 30 nM | 0.2 nM | 0.6 nM |  |  |  |  |  | CC(C)CN(NC(=O)c1ccc(CN2CCN(C)CC2)cc1)c1nc(C#N)ncc1Br |  |  |
| 2000 nM |  |  |  |  | 2.4 nM | > 2080 | 552 | 45 | > 2080 |  | CN1CCN(Cc2ccc(-c3cncc(C(=O)N[C@@H](Cc4cccnc4)C(=O)NC4(C#N)CC4)c3)cc2)CC1 | > 16000 nM | > 16000 nM |
| 2000 nM |  |  |  |  | 2.7 nM | 718 | 76 | 128 | > 1850 |  | N#CC1(NC(=O)[C@H](Cc2cccnc2)NC(=O)c2cccc(-c3ncc[nH]3)c2)CC1 | > 16000 nM | > 16000 nM |
| > 25000 nM | 1590 nM | 2750 nM | 382 nM | 202 nM | 23.1 nM | 9 | 11 | 69 | 119 | 117 nM | N#CC1(NC(=O)[C@H](Cc2cccnc2)NC(=O)c2ccc(-c3ccccc3)cc2)CC1 |  |  |
| 2000 nM |  |  |  |  | 3 nM | 1360 | 35 | 574 | > 1670 |  | N#CC1(NC(=O)[C@H](Cc2cccnc2)NC(=O)c2cccc(-n3cnnn3)c2)CC1 | > 16000 nM | > 16000 nM |
|  |  |  |  |  | 25.9 nM | 34 | 32 | 14 | > 192 |  | CN1CCN(Cc2ccc(C(=O)N[C@@H](Cc3cccnc3)C(=O)NC3(C#N)CC3)s2)CC1 |  |  |
|  |  |  |  |  | 55.4 nM | 34 | 7 | 6 | > 90 |  | CN1CCN(Cc2ccc(C(=O)N[C@@H](Cc3cccnc3)C(=O)NC3(C#N)CCS(=O)(=O)CC3)s2)CC1 |  |  |
|  |  |  |  |  | 6.3 nM | 107 | 9 | 679 | > 793 |  | Cn1nc(C(F)(F)F)cc1-c1ccc(C(=O)N[C@@H](Cc2cccnc2)C(=O)NC2(C#N)CCS(=O)(=O)CC2)s1 |  |  |
| 2000 nM |  |  |  |  | 1.2 nM | 2350 | 42 | 349 | > 4170 |  | N#CC1(NC(=O)[C@H](Cc2cccnc2)NC(=O)c2cccc(-c3cn[nH]c3)c2)CC1 | > 16000 nM | > 16000 nM |
|  | 492 nM | 1720 nM | 85 nM | 1.3 nM | 27 nM |  |  |  |  |  | CC(C)C[C@H](NC(=O)c1ccc(-c2ccccc2)cc1)C(=O)NC1(C#N)CC1 |  |  |
|  |  |  |  |  | 2.2 nM | 212 | 30 | 1240 | > 2270 |  | Cn1nc(C(F)(F)F)cc1-c1ccc(C(=O)N[C@@H](Cc2cccnc2)C(=O)NC2(C#N)CC2)s1 |  |  |
| 2700 nM | 4 nM | 2320 nM | 1 nM | 1 nM | 57 nM |  |  |  |  |  | CC(C)C[C@H](NC(=O)c1ccc(CN2CCN(C)CC2)cc1)C(=O)NC1(C#N)CCS(=O)(=O)CC1 |  |  |
